The source of these data is patent publication US20220010310A1, “An lncRNA integrates a DNA-PK-mediated DNA damage response and vascular senescence” (The Brigham and Women`s Hospital, Inc., priority 2018, published 2022).

In one data set the test system is HUVECs. The experiment in a line: Mitochondrial stress (Seahorse OCR/ECAR, NAD+/NADH) in gapmeR-transfected HUVECs. Type of data set: cell-based, human. The method, then: FIGS. 13A-D. Accumulating DNA damage and its effect on mitochondrial stress. (A) Oxidative consumption rate (OCR) and extracellular acidification rate (ECAR). The bars from left to right represent control, control+NR, SNHG12 KD, and SNHG12 KD+NR, respectively. (B) in HUVECs transfected with the indicated gapmeRs in the absence or presence of NR (500 μM, 24 hrs) (n=3). P value was determined by one-way analysis of variance (ANOVA) (Fisher's test). The bars from left to right represent control, control+NR, SNHG12 KD, and SNHG12 KD+NR, respectively. (C) SNHG12 expression or (D) ratio of NAD+ to […] in gapmeR-transfected HUVECs in the absence or presence of NR (n=3). P value was determined by Student's t test. For all panels, values are mean±SD; *p<0.05, **p<0.01; ***p<0.001; ****p<0.0001.
Mitochondrial dysfunction is a hallmark of senescence and reparative responses during oxidative insults requires effective energy metabolism. Oxidative stress-induced DNA damage activates NAD+ consumption pathways (31). Examination of the effect of SNHG12 knockdown on key mitochondrial activities such as mitochondrial respiration and glycolysis in ECs used Seahorse analyses. Loss of SNHG12 decreased the extracellular acidification rate (ECAR) and oxygen consumption rate (OCR) of live cells (FIGS. 13A, 13B). […]

The next data set relates to LDLR−/− mice. Put plainly: NR rescue of SNHG12-gapmeR accelerated atherosclerosis in LDLR−/− mice. Type of data set: in vivo, mouse. The procedure: FIGS. 5A-G. NR rescued progression of atherosclerotic lesions in LDLR^−/− mice induced by SNHG12 silencing. (A) LDLR^−/− mice were i.v. injected with vehicle control or SNHG12-gapmeR (7.5 mg/kg/mouse) twice per week and placed on an HCD containing NR (400 mg/kg/day) for 12 weeks (n=12 per group). (B) Lesion areas were quantified using ORO area on aortic sinus sections (n=10 per group). Fold change was calculated compared to groups from study 1 as described in FIG. 1. P value was determined by Student's t test. (C) Lesional DNA damage in the vascular endothelium of the aortic arch was quantified in LDLR^−/− mice by γH2AX with nuclear co-localization with DAPI in CD31^+ cells compared to study 1. RT-qPCR analysis for (D) SNHG12 and (E) markers of senescence p16, p21, and p27 from RNA isolated of the aortic intima of mice placed on HCD containing NR (n=6 per group). P value was determined by Student's t test. (F) Acellular areas were measured in the aortic sinus for each of the indicated groups (n=6 per group; 2-3 lesion per mice). (G) TUNEL staining was quantified in the aortic sinus for each of the indicated groups (n=7 per group). P value was determined by Student's t test. For all panels, values are mean±SD; *p<0.05, **p<0.01; ***p<0.001; ****p<0.0001.
Furthermore, administration of the NAD^+ precursor NR can limit DNA damage. […] To assess whether SNHG12-deficient lesion progression involves increased DNA damage, SNHG12-gapmeR was delivered i.v. as described in (FIG. 1F) and the HCD was supplemented with NR (400 mg/kg/day) (FIG. 5A). […] Moreover, NR administration abrogated the SNHG12-gapmeR mediated effect on increased γH2AX foci in lesional ECs in the aortic arch (FIG. 5C). Consistent with less DNA damage, the induction of the senescence markers p16, p21, and p27 fell in the presence of NR compared to LDLR^−/− mice treated with SNHG12-gapmeRs without NR (FIGS. 5D, 5E). […] Taken together, the rescue effects mediated by NR strongly support the findings that the lncRNA SNHG12 regulates the DDR both in vitro and in vivo.

The next data set addresses T1, DNA-PK (Homo sapiens, UniProt P78527).
T1 construct: lncRNA pulldown using nuclear protein extract from HUVECs; endogenous in cells; host or cells: HUVEC nuclear protein lysate
The experiment in a line: lncRNA pulldown of biotinylated SNHG12 domain deletion constructs. The class given is binding. Particulars: pulldown with HUVEC nuclear protein lysate. The source says:
(A) Proteins identified in pulldowns of biotinylated SNHG12; DNA-PK bound specifically to SNHG12 compared to negative control LacZ (n=2, two technical replicates each). (B) Immunoblotting for DNA-PK, ATM, ATR, Ku80, Ku70, p53, and control on nuclear protein lysate from HUVECs after lncRNA pulldown (n=5). (C) Analysis after streptavidin pulldown of nuclear protein lysate derived from the aorta of C57B1/6 mice following two i.v. injections of biotin-labeled SNHG12 compared to LacZ (n=4 per group). (D, E) Predicted secondary structure of SNHG12 with indicated deletions of domains 1˜4 used for subsequent lncRNA pulldown of biotinylated SNHG12 domain deletion constructs (n=4). P value was determined by one-way analysis of variance (ANOVA) (Fisher's test). (F) IP for DNA-PK following RNA isolation and subsequent RT-qPCR for SNHG12 and for negative control HPRT (n=5). […] Immunoblotting for Ku70, Ku80 and DNA-PK and (H) quantification under H2O2 conditions (n=3). […]
To identify potential SNHG12-interacting proteins that may inform mechanisms underlying these findings, biotin-labeled T7 in vitro transcribed SNHG12 or LacZ was incubated with nuclear protein lysate of HUVECs (FIG. 9A). […] Furthermore, biophysical studies determined the equilibrium dissociation constant (KD) for the SNHG12-DNA-PK interaction (1.318E-07 μM) (FIG. 9E). […]

T1 sequence (P78527 whole entry): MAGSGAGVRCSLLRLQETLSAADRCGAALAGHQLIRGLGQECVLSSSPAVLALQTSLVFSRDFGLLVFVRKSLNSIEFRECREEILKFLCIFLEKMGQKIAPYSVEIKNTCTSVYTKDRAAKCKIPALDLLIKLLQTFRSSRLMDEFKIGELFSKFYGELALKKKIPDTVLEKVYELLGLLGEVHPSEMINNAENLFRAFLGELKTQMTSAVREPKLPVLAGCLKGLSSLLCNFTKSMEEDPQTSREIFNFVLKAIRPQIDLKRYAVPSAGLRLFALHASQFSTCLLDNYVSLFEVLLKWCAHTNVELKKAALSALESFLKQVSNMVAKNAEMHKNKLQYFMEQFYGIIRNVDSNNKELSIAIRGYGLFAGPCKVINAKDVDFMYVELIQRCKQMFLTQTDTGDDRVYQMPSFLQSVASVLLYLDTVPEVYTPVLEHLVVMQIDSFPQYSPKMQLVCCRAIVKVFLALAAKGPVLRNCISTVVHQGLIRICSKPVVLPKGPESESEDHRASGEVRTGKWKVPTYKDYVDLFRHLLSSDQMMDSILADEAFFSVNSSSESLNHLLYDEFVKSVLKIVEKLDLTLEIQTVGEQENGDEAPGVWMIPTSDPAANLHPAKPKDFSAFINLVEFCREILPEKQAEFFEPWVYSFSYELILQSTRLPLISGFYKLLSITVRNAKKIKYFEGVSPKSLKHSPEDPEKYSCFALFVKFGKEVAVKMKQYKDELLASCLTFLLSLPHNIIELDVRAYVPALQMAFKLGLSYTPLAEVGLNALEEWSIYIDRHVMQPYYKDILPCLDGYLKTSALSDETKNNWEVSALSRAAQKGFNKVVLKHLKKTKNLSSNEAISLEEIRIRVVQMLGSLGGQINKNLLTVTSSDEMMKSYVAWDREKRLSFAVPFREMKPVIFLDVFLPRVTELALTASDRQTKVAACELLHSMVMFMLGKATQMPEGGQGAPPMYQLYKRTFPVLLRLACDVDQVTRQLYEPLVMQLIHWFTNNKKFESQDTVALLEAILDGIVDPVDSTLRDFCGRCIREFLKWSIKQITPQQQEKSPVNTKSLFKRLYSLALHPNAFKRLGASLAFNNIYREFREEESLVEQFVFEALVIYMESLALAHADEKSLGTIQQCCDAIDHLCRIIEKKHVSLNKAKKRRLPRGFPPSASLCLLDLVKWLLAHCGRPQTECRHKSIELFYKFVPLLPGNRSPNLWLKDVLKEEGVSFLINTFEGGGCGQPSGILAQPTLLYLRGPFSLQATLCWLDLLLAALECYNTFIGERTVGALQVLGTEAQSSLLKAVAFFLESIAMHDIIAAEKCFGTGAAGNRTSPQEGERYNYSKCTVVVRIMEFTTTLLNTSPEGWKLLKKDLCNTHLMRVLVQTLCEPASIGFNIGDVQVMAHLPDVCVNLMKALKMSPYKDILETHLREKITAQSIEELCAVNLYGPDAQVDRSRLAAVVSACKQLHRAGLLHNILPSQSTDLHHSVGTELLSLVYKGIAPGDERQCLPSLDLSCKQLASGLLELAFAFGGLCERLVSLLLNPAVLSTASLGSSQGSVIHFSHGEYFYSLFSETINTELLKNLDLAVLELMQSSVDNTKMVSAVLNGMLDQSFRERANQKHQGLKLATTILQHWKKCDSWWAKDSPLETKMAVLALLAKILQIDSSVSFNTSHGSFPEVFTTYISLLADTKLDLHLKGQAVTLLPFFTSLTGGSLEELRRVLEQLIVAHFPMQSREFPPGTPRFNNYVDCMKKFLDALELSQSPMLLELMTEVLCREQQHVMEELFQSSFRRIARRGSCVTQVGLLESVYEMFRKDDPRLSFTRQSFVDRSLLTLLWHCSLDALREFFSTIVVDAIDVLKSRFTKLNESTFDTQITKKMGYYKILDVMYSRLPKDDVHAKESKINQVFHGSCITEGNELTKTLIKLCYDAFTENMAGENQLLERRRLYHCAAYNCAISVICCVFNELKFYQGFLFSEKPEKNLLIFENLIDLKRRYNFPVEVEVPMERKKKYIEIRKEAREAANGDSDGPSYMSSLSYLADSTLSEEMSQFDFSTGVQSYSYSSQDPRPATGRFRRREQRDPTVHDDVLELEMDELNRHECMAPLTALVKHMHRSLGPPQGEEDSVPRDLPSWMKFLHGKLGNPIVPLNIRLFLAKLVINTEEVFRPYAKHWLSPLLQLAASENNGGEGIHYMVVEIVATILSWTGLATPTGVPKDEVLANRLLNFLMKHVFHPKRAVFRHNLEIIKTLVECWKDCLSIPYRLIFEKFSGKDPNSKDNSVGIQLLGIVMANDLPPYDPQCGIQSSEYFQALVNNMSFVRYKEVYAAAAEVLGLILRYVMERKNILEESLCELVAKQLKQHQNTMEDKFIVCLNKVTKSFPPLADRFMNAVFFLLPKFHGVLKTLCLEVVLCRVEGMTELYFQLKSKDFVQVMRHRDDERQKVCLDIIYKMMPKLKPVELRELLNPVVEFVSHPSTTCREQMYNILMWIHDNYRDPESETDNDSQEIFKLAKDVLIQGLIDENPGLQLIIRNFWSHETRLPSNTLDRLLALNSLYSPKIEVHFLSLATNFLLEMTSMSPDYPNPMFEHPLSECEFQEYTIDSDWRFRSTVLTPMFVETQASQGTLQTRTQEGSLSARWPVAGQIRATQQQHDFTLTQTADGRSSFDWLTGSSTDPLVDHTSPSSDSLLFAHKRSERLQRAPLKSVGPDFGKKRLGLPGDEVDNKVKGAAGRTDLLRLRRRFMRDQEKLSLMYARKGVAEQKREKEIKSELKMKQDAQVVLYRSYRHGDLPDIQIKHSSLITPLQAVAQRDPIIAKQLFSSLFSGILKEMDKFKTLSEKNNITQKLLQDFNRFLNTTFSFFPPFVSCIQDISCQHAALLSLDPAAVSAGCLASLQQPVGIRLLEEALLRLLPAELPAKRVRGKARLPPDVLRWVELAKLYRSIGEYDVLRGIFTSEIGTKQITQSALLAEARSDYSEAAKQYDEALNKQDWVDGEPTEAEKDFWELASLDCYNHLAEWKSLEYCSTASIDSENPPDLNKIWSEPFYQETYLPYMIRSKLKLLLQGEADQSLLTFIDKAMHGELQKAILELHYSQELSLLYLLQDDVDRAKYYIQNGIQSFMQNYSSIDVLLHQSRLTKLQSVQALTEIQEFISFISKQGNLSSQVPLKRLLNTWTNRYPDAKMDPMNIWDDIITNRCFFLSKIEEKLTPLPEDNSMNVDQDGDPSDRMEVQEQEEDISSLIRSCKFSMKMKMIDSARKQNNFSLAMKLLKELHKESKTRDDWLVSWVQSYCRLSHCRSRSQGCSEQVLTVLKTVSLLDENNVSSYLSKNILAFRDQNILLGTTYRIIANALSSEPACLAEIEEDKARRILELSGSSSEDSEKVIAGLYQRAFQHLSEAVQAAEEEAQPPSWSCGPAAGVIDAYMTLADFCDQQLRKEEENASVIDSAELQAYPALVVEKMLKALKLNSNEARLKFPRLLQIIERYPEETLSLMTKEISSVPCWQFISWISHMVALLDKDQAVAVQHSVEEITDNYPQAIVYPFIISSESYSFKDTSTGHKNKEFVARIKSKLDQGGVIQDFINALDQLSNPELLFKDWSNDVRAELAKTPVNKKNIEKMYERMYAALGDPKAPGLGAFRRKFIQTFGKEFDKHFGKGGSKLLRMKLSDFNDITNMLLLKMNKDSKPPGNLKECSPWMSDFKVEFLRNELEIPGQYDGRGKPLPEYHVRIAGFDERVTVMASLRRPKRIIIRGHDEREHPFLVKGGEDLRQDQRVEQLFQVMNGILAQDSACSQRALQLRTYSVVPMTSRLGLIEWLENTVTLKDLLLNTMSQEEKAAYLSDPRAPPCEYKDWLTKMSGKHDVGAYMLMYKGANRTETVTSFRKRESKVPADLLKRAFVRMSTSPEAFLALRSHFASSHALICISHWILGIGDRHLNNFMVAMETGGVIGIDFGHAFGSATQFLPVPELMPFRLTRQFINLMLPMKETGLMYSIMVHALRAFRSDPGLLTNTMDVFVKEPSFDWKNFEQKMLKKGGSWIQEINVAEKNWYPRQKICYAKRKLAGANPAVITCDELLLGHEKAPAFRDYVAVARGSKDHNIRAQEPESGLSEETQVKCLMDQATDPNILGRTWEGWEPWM

Regarding `NC(=O)c1ccc[n+]([C@@H]2O[C@H](CO)[C@@H](O)[C@H]2O)c1` [NR, Nicotinamide Riboside], the SNHG12 expression entry with HUVECs (NR 500 μM, 24 hrs) is listed as “did not affect”. For the same molecule, in the data set with HUVECs (gapmeR-transfected HUVECs, absence or presence of NR), the “NAD+/NADH ratio” value is given as “partially rescued”. The “increase in lesion areas by ORO between SNHG12-gapmeR and control-gapmeR groups on NR” value in the data set on LDLR−/− mice (HCD with NR 400 mg/kg/day, 12 weeks, P=0.1729) was “no significant”. For the same molecule, the “SNHG12-gapmeR mediated increase of γH2AX foci in lesional ECs in the aortic arch” value in the data set with LDLR−/− mice (NR 400 mg/kg/day, 12 weeks) is “abrogated”. Moreover, the “induction of senescence markers p16, p21, and p27 compared to SNHG12-gapmeR without NR” value with LDLR−/− mice (aortic intima, NR 400 mg/kg/day) was “fell”. For the same molecule, in the data set on LDLR−/− mice (aortic sinus, NR 400 mg/kg/day), the “TUNEL positive cells compared to groups without NR” value is recorded as “reduced” and the “differences in plaque necrosis” value is recorded as “eliminated differences”.

B1: Deletion of domain-4: biotinylated SNHG12 construct with predicted secondary-structure domain 4 deleted (nucleic acid, listed as Homo sapiens)
chain: TGCAAGCCTCTGCCTGCCTTCCTGCGCGCCGTTCCCCGCTAGTCGCTGCTGCTGGCGCGCACTCGCCGGGTTTTTCCTCCCACGGCCTCGAGATGGTGGTGAATGTGGCACGGAGGAGCCGGGCCTTCCAACCCGGTGGGCCCGAGCTCCGAAAGGCCCCCTCGGCAGTGAGAGGGGCGGGAGCCCGCGGGGGCCGCGCCCTTCTCTCGCTTCGGACTGCGCAACGCTGCGCTCTGGGCTGACAGGCGGATAAAACGGTCCCATCAAGACTGAGAAAAAGCACACCAGCTATTGGCACAGCGTGGGCAGTGGGGCCTACAGGATGACTGACTTAGTCTACAGAGATCCCGGCGTACTTAAGCAGATGAAGACTCTTAAGATGACAGAAGGTGATTTTTCTGGTGATCGAGGACTTCCGGGGTAATGACAGTGATGAAATGCAGGGGACCTGGTTGCCCCCAAGTTTCCTGGCAGTGTGTGATACTGAGGAGGTGAGCTTGTTTCTGGAGCTGTGCTTTAAGGTAAAGTTGATCAGCTTAATCCTCCTGATCCCTTTCCCA
modifications: biotin
notes: biotinylated SNHG12 construct with predicted secondary-structure domain 4 deleted
Regarding B1, the “reduction of DNA-PK binding” value with DNA-PK was roughly 50%.
